According to patent publication US10774112B2, “Biomimetic peptide and biodegradable delivery platform for the treatment of angiogenesis- and lymphangiogenesis-dependent diseases” (THE JOHNS HOPKINS UNIVERSITY, priority 2013, dated 2020):

What was measured:
[1] = system: human umbilical vein endothelial cells (HUVEC); assay: Proliferation assay (WST-1), HUVEC; assay type: cell-based; details: FIG. 1
Protocol: A colorimetric based proliferation assay using WST-1 (Roche, 11644807001) proliferation reagent was carried out using HREC cells, HUVEC cells, and the breast cancer cells MDA-MB-231, MCF-7, and SUM149. 2000 cells/well were plated in 96-well plates and allowed to adhere overnight. On the following day, the media was exchanged with fully supplemented media containing peptides or equivalent DMSO vehicle for the controls. Three days later, the media containing the peptides was replaced with serum-free EBM-2 media containing WST-1 reagent and the plates were incubated for four hours as per the manufacturer's recommendations. Changes in color, due to the formazan dye resulted from the cleavage of the tetrazolium salt WST-1 by the mitochondrial succinate-tetrazolium reductase, were read on a Victor V fluorescence plate reader (Perkin Elmer, Mass.) by measuring the absorbance at 450 nm. Dose response curves of percent live cells (in comparison to untreated cells, but incubated in complete media with 0.2% DMSO) were created. Assays were performed in at least two independent replicates and each replicate was performed using three experimental triplicates.

[2] = system: human retinal endothelial cells (HREC); assay: Migration assay (RT-CIM), HREC; assay type: cell-based; details: FIG. 2
Protocol: The inhibitory potential of the peptides was measured using a real time migration assay system based on electrical impedance (RT-CIM, ACEA Biosciences, CA). CIM 16 well plates (Roche, 05665817001) are composed of a top and bottom chamber separated by a microporous (8 μm) polycarbonate membrane. The membrane was coated with fibronectin (20 μg/mL), and 45,000 cells/well in serum free media with or without peptides were added to the top compartment. Media with chemoattractant (i.e., fully supplemented EBM-2) was added to the bottom compartment of the chamber and the plate was incubated at 37° C. for 20 hours. The sensors integrated on the bottom side of the membrane monitor and continuously record changes in impedance as the cells move through the membrane. The RT-CIM technology allows for easy quantification of cell migration by monitoring the cell index derived from the measured impedances. Assays were performed in at least two independent replicates and each replicate was performed using two experimental duplicates. Breast cancer cells MDA-MB-231 are not suitable for the RT-CIM type experiments due to their thin elongated phenotype, thus the inhibition of migration was investigated using a wound healing type assay. This assay was performed using the Oris Pro Migration assay (Platypus Technologies, CMA 1.101). […]

[3] = system: HUVEC; assay: HUVEC tube formation assay; assay type: cell-based, human; details: 25 μM peptide; FIG. 3 A-B
Protocol: Tube Formation Inhibition Assays.
The compositions also were tested for their ability to inhibit tube formation, a process critical in angiogenesis. Endothelial cells spontaneously form a network of tubes when plated on extracts of extracellular matrix. This in vitro assay combines aspects of adhesion and migration and it is routinely used in angiogenesis research (Oliveira-Ferrer et al., 2008). The ability to inhibit tube formation is a comprehensive assessment of the anti-angiogenic potential. The protocol was described by Arnaoutova et al. (2009) and it consists of plating HUVEC on top of basement membrane extract. After incubation at 37° C., the cells naturally rearrange themselves in a network of tubes. Thus, 50 μL/well of Matrigel (BD Biosciences, San Jose, Calif.) was plated in a cold 96 well plate and incubated at 37° C. for 30 min for polymerization. 15,000 cells/well were added to the top of the gel and incubated in complete media in the presence or absence of peptide for 19 hours. Images were captured using the CCD Sensicam mounted on a Nikon microscope (Eclipse T-100). Assays were performed in at least two independent replicates and each replicate was performed using three experimental replicates and one image of a randomly chosen field was acquired per well.

[4] = system: HGF signaling; assay: HGF signaling in MDA-MB-231 cells; assay type: cell-based, human; details: FIG. 8
[5] = system: c-Met; assay: Phosphorylation of c-Met in vivo; details: FIG. 10
[6] = system: VEGF-induced neovascularization; assay: rho/VEGF transgenic mice with VEGF-induced neovascularization; assay type: in vivo; details: compared to a control; FIGS. 13C-E
Protocol: Transgenic Mice with VEGF-Induced Neovascularization.
At postnatal day 14, hemizygous rho/VEGF mice were given an intraocular injection of 1 μL of 5% DMSO/water, 1 μL of 5% DMSO/water containing 0.1 μg or 1 μg of SP2043 (SEQ ID No: 1) in one eye. Intraocular injections were done under a dissecting microscope with a Harvard Pump Microinjection System (Harvard Apparatus, Holliston, Mass.) and pulled glass micropipettes. At postnatal day 21, the total area of subretinal neovascularization (NV) per eye was quantified. Briefly, mice were anesthetized and perfused with 1 mL of PBS containing 25 mg/mL of fluorescein-labeled dextran (average molecular weight of 2×10^6, Sigma-Aldrich, St. Louis, Mo.). The eyes were removed and fixed for 1 hour in 10% phosphate-buffered formalin. […] The retinas were examined by fluorescence microscopy at 200× magnification, which provides a narrow depth of field so that when focusing on NV on the outer surface of the retina, the remainder of the retinal vessels are out of focus, allowing easy delineation of the NV. […] By using Image analysis software (Image-Pro Plus; Media Cybernetics, Silver Spring, Md.), an investigator masked with respect to treatment group allowed the software to recognize and calculated the total area of subretinal NV per eye as previously described.

[7] = system: vascular leakage; assay: Vascular leakage in Tet/Opsin/VEGF mouse model; assay type: in vivo, mice; details: FIGS. 15A-B
Protocol: Vascular Permeability in Mouse Eyes:
Mice were injected intravitreally with 1 μg of SP2043 (SEQ ID NO: 1) in one eye, and vehicle in the fellow eye and vehicle control was injected in the other eye of adult double transgenic Tet/Opsin/VEGF mice. Three days later, the mice were given 2 mg/mL doxycycline in the drinking water for 3 days. At that time the animals were anesthetized and their pupils dilated as for standard fundoscopy. The eyes were examined to compare the number of animals that had retinal detachments under the two treatments by fundus imaging using Micron II retinal imaging and optical coherence tomography imaging using published protocols.

LRRFSTAPFAFIDINDVINF (Artificial sequence based on human Collagen Type IV protein) [SP2043]
proliferation of HUVEC [1]: inhibit | migration of HREC [2]: inhibit | HUVEC tube formation [3]: inhibit | HGF signaling in MDA-MB-231 cells [4]: inhibit | phosphorylation of c-Met in vivo [5]: inhibit | neovascularization in rho-VEGF mouse model [6]: inhibited | vascular leakage in Tet/Opsin/VEGF mouse model [7]: inhibited
